From patent US20210015811A1, “METHODS OF TREATING A PULMONARY BACTERIAL INFECTION USING FLUOROQUINOLONES” (HORIZON ORPHAN, LLC, priority 2009, published 2021)
In brackets after ≈: the same amount, converted by molar mass.

How the values were obtained:
[1] = system: 114 CF P. aeruginosa isolates; experiment: Aerobic and anaerobic MIC susceptibility testing (broth microdilution, CLSI); type: cell-based, Pseudomonas aeruginosa; details: for aerobic versus anaerobic MIC distribution (potency under anaerobic conditions): all 114 P. aeruginosa isolates, FIGS. 2A-D; for increase of geometric mean of the MIC by anaerobic incubation / increase of MIC50 under anaerobic conditions: 114 CF isolates; for increase of MIC50 under anaerobic conditions: CAMHB + 1% KNO3 for anaerobic
Source text: One hundred and fourteen CF P. aeruginosa isolates were obtained for susceptibility testing from the CF Referral Center for Susceptibility & Synergy Studies at Columbia University (New York, N.Y.) and also from two CF Therapeutics Development Network (TDN) laboratories (Seattle Children's Hospital, Seattle, Wash. and University of North Carolina at Chapel Hill, Chapel Hill, N.C.). About sixty percent were recent isolates (2004-2007) with the remaining forty percent isolated between 1980 and 2004.
The antibiotics used in these studies included tobramycin, levofloxacin, amikacin, and aztreonam which are in use or in development as aerosolized therapies for CF. For aerobic susceptibility tests, levofloxacin hydrochloride, tobramycin sulfate, and amikacin disulfate were purchased from LKT Laboratories (St. Paul, Minn.) and aztreonam base was purchased from MP Biomedicals (Solon, Ohio). All antibiotics used for anaerobic susceptibility tests were purchased from the United States Pharmacopeia (Rockville, Md.).
(§1) Antibiotic MIC endpoints were obtained using the broth microdilution method according to the CLSI reference method. See Clinical and Laboratory Standards Institute. Methods for Dilution Antimicrobial Susceptibility Tests for Bacteria That Grow Aerobically—Seventh Edition: Approved Standard M7-A7. CLSI, Wayne, Pa., USA, 2006. Antibiotics were serially diluted to the following concentrations for aerobic testing: levofloxacin and tobramycin from 0.03-32 mg/L and amikacin and aztreonam from 0.125-128 mg/L. Anaerobic susceptibility testing required the addition of 1% potassium nitrate (KNO3) to cation-adjusted Mueller-Hinton broth (CAMHB) to allow for P. aeruginosa anaerobic respiration. For anaerobic testing, frozen MIC plates were thawed and stored in the anaerobic chamber overnight to ensure elimination of all oxygen prior to inoculation with test strains. The dilution range for all antibiotics was 0.125-128 mg/L for the anaerobic susceptibility tests. Extended incubation of up to 48 hours under anaerobic conditions may be required and was needed for 54% of the isolates.

[2] = system: P. aeruginosa strain PAM1481 (na1B gyrA (Asp87Tyr)); experiment: Levofloxacin MIC against isogenic strain PAM1481; type: cell-based; details: Pseudomonas aeruginosa
Source text: (§2) P. aeruginosa strains PAM1020 (wild-type), PAM1032 (na1B), PAM1481 (na1B gyrA (Asp87Tyr)), and PAM1573 (na1B gyrA (Thr83Ile)) represent relevant efflux-mediated and target mutation resistance mechanisms and were used in the levofloxacin time-kill assays.
as §1, with “The dilution range for all antibiotics was 0.125-128 mg/L for the anaerobic susceptibility tests. Extended incubation of up to 48 hours under anaerobic conditions may be required and was needed for 54% of the isolates.” left out
(§3) Aerobic and hypoxic Mueller-Hinton broth (MHB) cultures were diluted to an initial inoculum of 1×10^7-1×10^8 CFU/ml. […] Agar plates were incubated up to 48 hours at 37° C. and bactericidal activity was assessed. […]

[3] = system: P. aeruginosa strain PAM1573 (na1B gyrA (Thr83Ile)); experiment: Levofloxacin MIC against isogenic strain PAM1573; type: cell-based; details: Pseudomonas aeruginosa
Source text: as §2
as §1, with “The dilution range for all antibiotics was 0.125-128 mg/L for the anaerobic susceptibility tests. Extended incubation of up to 48 hours under anaerobic conditions may be required and was needed for 54% of the isolates.” left out
as §3

[4] = system: P. aeruginosa strain PAM1020 (wild-type); experiment: Levofloxacin MIC against isogenic strain PAM1020; type: cell-based; details: Pseudomonas aeruginosa
Source text: as §2
as §1, with “The dilution range for all antibiotics was 0.125-128 mg/L for the anaerobic susceptibility tests. Extended incubation of up to 48 hours under anaerobic conditions may be required and was needed for 54% of the isolates.” left out
as §3

[5] = system: P. aeruginosa strain PAM1032 (na1B); experiment: Levofloxacin MIC against isogenic strain PAM1032; type: cell-based; details: Pseudomonas aeruginosa
Source text: as §2
as §1, with “The dilution range for all antibiotics was 0.125-128 mg/L for the anaerobic susceptibility tests. Extended incubation of up to 48 hours under anaerobic conditions may be required and was needed for 54% of the isolates.” left out
as §3

[6] = anaerobic vs aerobic incubation

aerobic versus anaerobic MIC distribution (potency under anaerobic conditions) [1]	increase of geometric mean of the MIC by anaerobic incubation [1, 6]	SMILES	MIC [2] [µg/mL]	increase of MIC50 under anaerobic conditions [1, 6] [fold]	isolates with MIC increase >4-fold under anaerobic conditions ([1]; anaerobic vs aerobic incubation, share of 114 CF isolates) [%]	MIC [3] [µg/mL]	MIC [4] [µg/mL]	MIC [5] [µg/mL]
reduced potency	~4 fold	NCC[C@H](O)C(=O)N[C@@H]1C[C@H](N)[C@@H](O[C@H]2O[C@H](CN)[C@@H](O)[C@H](O)[C@H]2O)[C@H](O)[C@H]1O[C@H]1O[C@H](CO)[C@@H](O)[C@H](N)[C@H]1O [amikacin]	–	–	–	–	–	–
–	–	C[C@H]1COc2c(N3CCN(C)CC3)c(F)cc3c(=O)c(C(=O)O)cn1c23 [levofloxacin]	4 (≈ 11.1 µM)	2	4	8 (≈ 22.1 µM)	0.125 (≈ 0.346 µM)	1 (≈ 2.77 µM)
reduced potency	approximately 7 fold	NC[C@H]1O[C@H](O[C@H]2[C@H](O)[C@@H](O[C@H]3O[C@H](CO)[C@@H](O)[C@H](N)[C@H]3O)[C@H](N)C[C@@H]2N)[C@H](N)C[C@@H]1O [tobramycin]	–	4	–	–	–	–

SMILES	aerobic versus anaerobic MIC distribution (potency under anaerobic conditions) [1]	increase of geometric mean of the MIC by anaerobic incubation [1, 6]	MIC [2] [µg/mL]	increase of MIC50 under anaerobic conditions [1, 6] [fold]	isolates with MIC increase >4-fold under anaerobic conditions ([1]; anaerobic vs aerobic incubation, share of 114 CF isolates) [%]	MIC [3] [µg/mL]	MIC [4] [µg/mL]	MIC [5] [µg/mL]
C[C@H]1[C@H](NC(=O)/C(=N\OC(C)(C)C(=O)O)c2csc(N)n2)C(=O)N1S(=O)(=O)O [aztreonam]	reduced potency	~6 fold	–	16	–	–	–	–
